PMC10993126, “Capture of endogenous lipids in peptidiscs and effect on protein stability and activity” (iScience, 2024)
Blank lines part the entries; values can stand above or below the molecule they belong to.

Experiments:
[1] = system: T1, SecYEG (HD-SecYEG; PD-SecYEG-CL); test: CL added before peptidisc reconstitution; SecA ATPase by Malachite green; SecA binding by clear-native PAGE; assay type: biochemical, Escherichia coli; details: 20:1 lipid to SecYEG molar ratio; with SecA; 1 mM ATP, 10 mM MgCl2, pH 8.8, 37°C; lipid activator
T1 construct: gene secY; read out with SecA; with Protein translocase subunit SecA

[2] = molecular target: the molecule itself; test: native gel or EMSA; 5-13% native PAGE with Coomassie staining of the DDM-MsbA and peptidisc-MsbA preparations (DDC, DLW, DHW)

T1 sequence (P0AG96 whole entry): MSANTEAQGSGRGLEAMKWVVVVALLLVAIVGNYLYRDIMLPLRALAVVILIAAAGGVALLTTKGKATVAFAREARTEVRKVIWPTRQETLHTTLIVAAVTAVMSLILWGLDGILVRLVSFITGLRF
T1 sequence (P0AGA2 whole entry, further chain): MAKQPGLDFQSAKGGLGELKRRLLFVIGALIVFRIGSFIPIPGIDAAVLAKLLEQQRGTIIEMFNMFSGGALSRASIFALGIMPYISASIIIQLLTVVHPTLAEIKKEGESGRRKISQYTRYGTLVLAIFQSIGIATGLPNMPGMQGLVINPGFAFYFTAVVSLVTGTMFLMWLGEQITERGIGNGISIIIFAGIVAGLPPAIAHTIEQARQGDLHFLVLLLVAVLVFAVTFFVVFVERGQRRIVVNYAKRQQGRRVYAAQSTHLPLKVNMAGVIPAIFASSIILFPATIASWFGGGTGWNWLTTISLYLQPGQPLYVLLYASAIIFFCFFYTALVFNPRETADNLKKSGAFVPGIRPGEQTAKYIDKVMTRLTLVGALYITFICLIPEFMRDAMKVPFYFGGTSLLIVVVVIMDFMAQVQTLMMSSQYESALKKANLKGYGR
T1 sequence (P10408 whole entry, further chain): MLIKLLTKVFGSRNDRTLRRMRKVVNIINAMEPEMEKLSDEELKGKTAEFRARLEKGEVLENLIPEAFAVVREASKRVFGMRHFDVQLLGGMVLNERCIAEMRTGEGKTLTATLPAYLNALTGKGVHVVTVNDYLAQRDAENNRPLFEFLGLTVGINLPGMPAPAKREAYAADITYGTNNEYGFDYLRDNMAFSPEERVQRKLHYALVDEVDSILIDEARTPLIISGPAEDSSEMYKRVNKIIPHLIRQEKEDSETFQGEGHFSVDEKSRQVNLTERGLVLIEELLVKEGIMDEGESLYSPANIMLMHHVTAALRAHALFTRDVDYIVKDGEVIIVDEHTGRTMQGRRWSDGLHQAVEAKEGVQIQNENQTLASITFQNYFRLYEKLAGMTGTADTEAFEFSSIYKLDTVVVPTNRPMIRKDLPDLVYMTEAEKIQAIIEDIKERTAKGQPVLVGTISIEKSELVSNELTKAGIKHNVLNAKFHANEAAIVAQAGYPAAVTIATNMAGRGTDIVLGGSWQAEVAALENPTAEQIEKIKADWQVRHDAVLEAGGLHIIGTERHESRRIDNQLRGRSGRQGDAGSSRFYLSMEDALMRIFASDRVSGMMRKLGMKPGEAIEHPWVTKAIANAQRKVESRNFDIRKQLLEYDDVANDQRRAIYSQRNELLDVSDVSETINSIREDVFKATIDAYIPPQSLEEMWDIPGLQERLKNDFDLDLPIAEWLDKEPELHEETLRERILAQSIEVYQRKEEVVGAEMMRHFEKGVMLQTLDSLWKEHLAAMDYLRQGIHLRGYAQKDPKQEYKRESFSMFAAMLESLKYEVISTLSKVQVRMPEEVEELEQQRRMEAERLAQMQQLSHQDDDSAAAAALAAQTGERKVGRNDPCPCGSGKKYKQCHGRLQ
T1 sequence (P0AG99 whole entry, further chain): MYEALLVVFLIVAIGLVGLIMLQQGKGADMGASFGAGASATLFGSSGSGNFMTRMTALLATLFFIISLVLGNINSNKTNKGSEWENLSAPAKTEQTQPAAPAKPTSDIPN

fold increase in SecA ATPase activity [1]: ~ 4 fold
Molecule: CCCCCCCC/C=C\CCCCCCCC(=O)O[C@H](COC(=O)CCCCCCCCCCCCCCC)COP(=O)(O)OCC(O)COP(=O)(O)OC[C@@H](COC(=O)CCCCCCCCCCCCCCC)OC(=O)CCCCCCC/C=C\CCCCCCCC (some centres unmarked) [CL, 1',3'-bis[1-palmitoyl-2-oleoyl-sn-glycero-3-phospho]-glycerol]

B1: His6-tagged MsbA (natural protein, UniProt P60752 1-582, looked up)
chain: MHNDKDLSTWQTFRRLWPTIAPFKAGLIVAGVALILNAASDTFMLSLLKPLLDDGFGKTDRSVLVWMPLVVIGLMILRGITSYVSSYCISWVSGKVVMTMRRRLFGHMMGMPVSFFDKQSTGTLLSRITYDSEQVASSSSGALITVVREGASIIGLFIMMFYYSWQLSIILIVLAPIVSIAIRVVSKRFRNISKNMQNTMGQVTTSAEQMLKGHKEVLIFGGQEVETKRFDKVSNRMRLQGMKMVSASSISDPIIQLIASLALAFVLYAASFPSVMDSLTAGTITVVFSSMIALMRPLKSLTNVNAQFQRGMAACQTLFTILDSEQEKDEGKRVIERATGDVEFRNVTFTYPGRDVPALRNINLKIPAGKTVALVGRSGSGKSTIASLITRFYDIDEGEILMDGHDLREYTLASLRNQVALVSQNVHLFNDTVANNIAYARTEQYSREQIEEAARMAYAMDFINKMDNGLDTVIGENGVLLSGGQRQRIAIARALLRDSPILILDEATSALDTESERAIQAALDELQKNRTSLVIAHRLSTIEKADEIVVVEDGVIVERGTHNDLLEHRGVYAQLHKMQFGQ
notes: The same protein was prepared with different amounts of endogenous lipid (DDC, DLW, DHW in peptidisc; DDM in detergent); also called DDC-MsbA; DLW-MsbA; source: E. coli BL21(DE3), membranes solubilized with DDM, purified (Ni-NTA), reconstituted in peptidiscs or kept in DDM
stoichiometry N [2]: 2
